Measured values: patent US11535597B2, “Photoreactive ligands and uses thereof” (The Scripps Research Institute, priority 2017, dated 2022)

Test system: proteins in HEK293T cells
Assay: MS-based mapping of FFF probe-modified peptides (isoTOP, sites of labeling)
Assay type: binding, human
Description: Preparation and analysis was adapted from methods previously reported. In brief, for global mapping of fragment probe-modified peptides, separate 10 cm dishes of cells were treated with probes (200-250 μM) in 3.0 mL of DMEM (serum-free) and (if applicable) competitor ligands, proteomes harvested and subjected to click chemistry conditions with either light or heavy isotopically labeled biotin-TEV-azide (10 μL of 5 mM stocks in DMSO, final concentration=100 μM), TCEP, ligand and CuSO4 as detailed above. The samples were allowed to react for 1 h at which point the samples were centrifuged (16,000 g, 5 min, 4° C.). The resulting pellets were sonicated in ice-cold methanol (500 μL) and the resuspended light- and heavy-labeled samples were then combined and centrifuged (16,000 g, 5 min, 4° C.). The pellets were then solubilized in PBS containing 1.2% SDS (1 mL) with sonication and heating (5 min, 95° C.). Samples were transferred to falcon tubes containing DPBS (5 mL), to which a 100 μL of streptavidin-agarose beads slurry was added. After incubation, the beads (3 hr) were pelleted by centrifugation (1,400 g, 3 min) and were washed (2×10 mL PBS and 2×10 mL water). The beads were transferred to eppendorf tubes with 1 mL DPBS, centrifuged (1,400 g, 3 min), and resuspended in PBS containing 6 M urea. To this was added 10 mM DTT (25 μL of a 200 mM stock in water) and the beads were incubated at 65° C. for 15 mins. 20 mM iodoacetamide (25 μL of a 400 mM stock in water) was then added and allowed to react at 37° C. for 30 mins with shaking. The bead mixture was diluted with 900 μL PBS, pelleted by centrifugation (1,400 g, 3 min), and resuspended in 200 μL 2M urea (DPBS) containing trypsin and CaCl2 as described above. The beads were separated from the digest by centrifugation (1,000 g, 1 min), washed (2×1 mL PBS and 2×1 mL water) and then transferred to fresh eppendorfs with 1 mL water. The washed beads were washed once further in 150 μL TEV buffer (50 mM Tris, pH 8, 0.5 mM EDTA, 1 mM DTT) by centrifugation (1,400 g, 3 min) and the resuspended in 150 μL TEV buffer. 5 μL TEV protease (80 μM) was added and the reactions were rotated overnight at 29° C. The TEV digest was separated from the beads by centrifugation (1,400 g, 3 min) and the beads were washed once with water (100 μL). The samples were then acidified to a final concentration of 5% (v/v) formic acid and stored at −80° C. prior to analysis.
The resulting probe-modified peptides were collected for MS analysis, which was performed as described above with differences in the salt bumps applied in the chromatographic gradients which in this case were 0%, 30%, 60%, 90% and 100% NH4OAc (500 μM). The protein identification searches of the MS data were performed with the following changes applied to identify the peptides modified with the corresponding fragment probe and the cleaved TEV tag. All amino acids were considered as possible residues for modification. To facilitate the computational searches, sets of up to 3 amino acids were searched using ProLuCID and filtered with DTASelect as described above. […] The isoTOP ratios for probe labeled peptides were quantified using the in-house software CIMAGE.
For each protein in the site-of-labeling dataset, the UniProtKB accession number was used to map and collect relevant structures from the RCSB Protein Data Bank (PDB) fulfilling the following criteria: structures determined by X-ray crystallography, wild-type protein, Homo sapiens as the sole source organism. […] Fpocket 2.0 was used to detect potential binding pockets for the resultant structures with all parameters set at recommended default. Pockets with volume less than 500 Å^3 were removed from output prior to further analysis. Residues surrounding fpocket predicted binding pockets for each protein were collected to determine the number of residues overlapping with isoTOP peptides.

[1] = protein PSMA2 Proteasome subunit alpha type-2 (P25787)
[2] = protein PSMA2 Proteasome subunit alpha type-2, residues of the probe-labeled peptide

C#CCCC1(CCC(=O)Nc2ccc3oc(=O)ccc3c2)N=N1 [probe 3, 3-(3-(But-3-yn-1-yl)-3H-diazirin-3-yl)-N-(2-oxo-2H-chromen-6-yl)propanamide]
Labeled Peptide of H2AFZ Histone H2A.Z (Accession P0C0S5, residues of probe-labeled peptide, family Transcription factors, Regulators): 47-75
Labeled Peptide of GRWD1 Glutamate-rich WD repeat-containing protein 1 (Accession Q9BQ67, residues of probe-labeled peptide, family Uncategorized): 183-198
Labeled Peptide (H2AFZ Histone H2A.Z, residues of probe-modified peptide): 47-75
Labeled Peptide (HSD17B4 Peroxisomal multifunctional enzyme type 2, residues of probe-modified peptide): 169-183
Labeled Peptide (LMNA Prelamin-A/C (P02545), residues of the probe-labeled peptide): 172-180
Labeled Peptide (NONO (Q15233), residues of the probe-labeled peptide): 127-135
Labeled Peptide (P00387 CYB5R3 NADH-cytochrome b5 reductase 3): 235-241
Labeled Peptide (residues) of PGK1 Phosphoglycerate kinase 1 (P00558, peptide QIVWNGPVGVFEWEAFAR, PDB 2WZB): 333-350
Labeled Peptide (P12532 CKMT1B Creatine kinase U-type, mitochondrial): 257-269
Labeled Peptide (P38117 ETFB Electron transfer flavoprotein subunit beta): 36-51
Labeled Peptide (P51659 HSD17B4 multifunctional enzyme type 2): 169-183
Labeled Peptide (PARP1 (P09874), residues of the probe-labeled peptide): 954-1000
Labeled Peptide (Q08211 DHX9 ATP-dependent RNA helicase A): 448-456
Labeled Peptide (protein ABHD10 (Q9NUJ1), residues of probe-labeled peptide): 285-300
Labeled Peptide (protein ACTL6A (O96019), residues of probe-labeled peptide): 25-34
Labeled Peptide (protein ANAPC7 (Q9UJX3), residues of probe-labeled peptide): 407-424
Labeled Peptide (protein CDK5RAP3 CDK5 regulatory subuni-associated protein 3 (Q96JB5), residues of probe-labeled peptide): 351-367
Labeled Peptide (protein CKMT1B Creatine kinase U-type, mitochondria, residues of probe-labeled peptide): 257-269
Labeled Peptide (protein CKMT1B Creatine kinase U-type, motochondrial (P12532), residues of probe-labeled peptide): 257-269
Labeled Peptide (protein CYB5R3 NADH-cytochrome b5 reductase 3 (P00387), residues of probe-labeled peptide): 235-241
Labeled Peptide (protein CYB5R3 NADH-cytochrome b5 reductase 3, residues of probe-labeled peptide): 235-241
Labeled Peptide (protein DDX17 Propable ATP-dependent RNA helicase DDX17 (Q92841), residues of probe-labeled peptide): 536-547
Labeled Peptide (protein DHX9 ATP-dependent RNA helicase A (Q08211), residues of probe-labeled peptide): 448-456
Labeled Peptide (protein DHX9 ATP-dependent RNA helicase A, residues of probe-labeled peptide): 448-456
Labeled Peptide (protein EEF1G Elongation factor 1-gamma (P26641), residues of probe-labeled peptide): 58-85
Labeled Peptide (protein ETFB Electron transfer flavoprotein subunit beta (P38117), residues of probe-labeled peptide): 36-51
Labeled Peptide (protein ETFB Electron transfer flavoprotein subunit beta, residues of probe-labeled peptide): 36-51
Labeled Peptide (protein NONO Non-POU domain-containing octamer-binding protein, residues of the probe-labeled peptide): 127-135
Labeled Peptide (protein PGK1 Phosphoglycerate kinase 1 (P00558)): 333-350
Labeled Peptide (protein PGK1 Phosphoglycerate kinase 1, residues of the probe-labeled peptide): 333-350
Labeled Peptide [1]: 19-39
Labeled Peptide [2]: 19-39
Labeled Peptide (protein Q96I99 SUCLG2 Succinyl-CoA ligase): 151-160
Labeled Peptide (protein Q01105 SET Protein SET): 91-122
Labeled Peptide (protein RBMXL1 RNA binding motif protein, X-linked-like-1 (Q96E39)): 245-252

C#CCCC1(CCC(=O)NC2N=C(c3ccccc3)c3ccccc3NC2=O)N=N1 (stereo not shown) [probe 2, 3-(3-(But-3-yn-1-yl)-3H-diazirin-3-yl)-N-(2-oxo-5-phenyl-2,3-dihydro-1H-benzo[e][1,4]diazepin-3-yl)propanamide]
Labeled Peptide of GSTP1 Glutathione S-transferase P (Accession P09211, residues of probe-labeled peptide, family Enzymes): 56-71
Labeled Peptide of HNRNPH3 Heterogeneous nuclear ribonucleoprotein H3 (Accession P31942, residues of probe-labeled peptide, family Transcription factors, Regulators): 324-343
Labeled Peptide of FUS RNA-binding protein FUS (Accession P35637, residues of probe-labeled peptide, family Transcription factors, Regulators): 335-348
Labeled Peptide (GSTP1 Glutathione S-transferase P, residues of probe-modified peptide): 56-71
Labeled Peptide (HNRNPL Heterogeneous nuclear ribonucleoprotein L, residues of probe-modified peptide): 399-411
Labeled Peptide (MESDC2 LDLR chaperone MESD (Q14696), residues of the probe-labeled peptide): 113-127
Labeled Peptide (NOC2L (Q9Y3T9), residues of the probe-labeled peptide): 591-606
Labeled Peptide (P09211 GSTP1 Glutathione S-transferase P): 56-71
Labeled Peptide (residues) of PPP1CC Serine/threonine-protein phosphatase PP1-gamma cat (P36873, peptide IYGFYDECK, PDB 4UT2): 133-141
Labeled Peptide (P55263 ADK Adenosine kinase): 209-224
Labeled Peptide (residues) of PPP1CA Serine/threonine-protein phosphatase PP1-alpha cat (P62136, peptide IYGFYDECK, PDB 4XPN): 133-141
Labeled Peptide (protein ADK (P55263), residues of probe-labeled peptide): 209-224
Labeled Peptide (protein ADK Adenosine kinase, residues of probe-labeled peptide): 209-224
Labeled Peptide (protein BSG Basigin (P35613), residues of probe-labeled peptide): 228-243
Labeled Peptide (protein CLPTM1 Cleft lip and palate transmembrane protein 1 (O96005), residues of probe-labeled peptide): 548-562
Labeled Peptide (protein EIF3E Eukaryotic translation initiation factor 3 submit (P60228), residues of probe-labeled peptide): 173-191
Labeled Peptide (protein EIF3H Eukaryotic translation initiation factor 3 submit (O15372), residues of probe-labeled peptide): 207-220
Labeled Peptide (protein EQSR1 RNA-binding protein EWS (Q01844), residues of probe-labeled peptide): 269-292
Labeled Peptide (protein FARSB Phenylalanine--tRNA ligase beta subunit, residues of probe-labeled peptide): 518-530
Labeled Peptide (protein FARSB Phenylalanini--tRNA ligase beta subunit (Q9NSD9), residues of probe-labeled peptide): 518-530
Labeled Peptide (protein P62917 RPL8 60S ribosomal protein L8): 129-144
Labeled Peptide (protein PFDN5 Prefoldin subunit 5 (Q99471)): 20-37
Labeled Peptide (protein PPP1CA Serine/threonine-protein phosphatase PP1-alpha cat, residues of the probe-labeled peptide): 133-141
Labeled Peptide (protein PPP1CA Serine/threonine-protein phosphate PP1-alpha cat (P62136)): 133-141
Labeled Peptide (protein PPP1CB Serine/threonine-protein phosphate PP1-alpha cat (P62140)): 132-140
Labeled Peptide (protein PPP1CC Serine/threonine-protein phosphatase PP1-gamma cat, residues of the probe-labeled peptide): 133-141
Labeled Peptide (protein PPP1CC Serine/threonine-protein phosphate PP1-gamma cat (P36873)): 133-141
Labeled Peptide [1]: 144-159
Labeled Peptide [2]: 144-159
Labeled Peptide (protein PSMD11 26S proteasome non-ATPase regulatory subunit 11 (O00231)): 164-175
Labeled Peptide (protein PTCD3 Pentatricopeptide repeat-containing protein 3, mit (Q96EY7)): 119-126
Labeled Peptide (protein Q6NUK1 SCLC25A24 Calcium-binding mitochondrial carrier protein SCaM): 454-469
Labeled Peptide (protein Q15631 TSN Translin): 205-215
Labeled Peptide (protein Q92804 TAF15 TATA-binding protein-associated factor 2N): 284-297
Labeled Peptide (protein QKI Protein quaking (Q96PU8)): 192-205
Labeled Peptide (protein RUVBL1 RuvB-like 1, residues of the probe-labeled peptide): 318-333
Labeled Peptide (protein RUVBL1 RuvB-like 1, residues of the probe-modified peptide): 91-107
Labeled Peptide (protein TSN Translin, residues of the probe-modified peptide): 205-215
